# Where “and” joins values, the source holds several entries; their conditions need not be identical. Equal entries are not always repeated. Where two headings read alike, the source gives them in different places.
# How the values were obtained:
# [1] = in vivo; cited from earlier work
# [2] = assay type: physicochemical; details: 25 mM, pH 7.0-7.4, tsat=3 sec, ω1=3.6 μT, 37° C., 11.7 T
# Experimental: 25 mM salicylic acid analogs (4-11) were made at pH 7.1-7.4 and tested with the phantom condition as described above. The Z-spectra were obtained by using Tsat=3 sec, ω1=3.6 μT at 37° C. […] CEST contrast was quantified by MTRasym=(S−Δω−S+Δω))/S0 after a voxel-by-voxel B0 correction, with characterized mean Z-spectra and MTRasym spectra for sample ROIs plotted and the typical results were summarized in FIG. 3A.
# [3] = QUESP measurement of proton exchange rate (ksw) of salicylic acid; assay type: physicochemical; details: 25 mM, pH 7.0, QUESP
# From the text: The parameters for all fitting were: R1w=0.3, R2w=0.6, R1s=0.71, R2s=39, Tsat=3s.
# [4] = assay type: in vivo, mouse; details: mice, i.v., 9.3 ppm, 7.2 μT
# From the text: In particular, images consisting of a single axial slice containing both kidneys were collected. Because the B0 inhomogeneity was less than 200 Hz for these animals, a two-point collection scheme was used to limit the scan time, which is also allowed by the use of the 7.2 μT field strength. […] A Z-spectrum was acquired before injection. […] According to the initial results in FIGS. 4F-4G, the in vivo data collection scheme was modified in order to improve the kinetic data for compound 1 in the kidney. […] In vivo images were acquired on a Bruker Biospec 11.7 T horizontal bore MR scanner, with one axial slice of 1.5 mm thickness obtained through the medulla of both kidneys. […] The BALB/c mice (n=2) weighing 20-25 g (Charles River Laboratories, Wilmington, Mass.) were maintained under specific pathogen free conditions in the animal facility of Johns Hopkins University. […] Breath rate was monitored throughout in vivo MRI experiments using a respiratory probe. […] BALB/c mice weighing 20-25 g (Charles River Laboratories, Wilmington, Mass.) were maintained under specific pathogen free conditions in the animal facility of Johns Hopkins University. […] Breath rate was monitored throughout in vivo MRI experiments using a respiratory probe. A 60 μL, volume of a 0.25 M salicylic acid solution in PBS (pH 7) was slowly injected via a catheter into the tail vein. […]
# [5] = QUESP/QUEST determination of ksw of anthranilic acid analogs; assay type: physicochemical
# Experimental: (§1) The solutions were placed into 1 mm glass capillaries and assembled in a holder for CEST MR imaging. They were kept at 37° C. during imaging.
# The Z-spectra were corrected pixel by pixel using a B0 map acquired using Water Saturation Shift Referencing (WASSR) as described in detail previously.
# R1w was allowed to float between 0.33 and s^−1 to obtain the best fit.
# [6] = assay type: physicochemical; details: 10 mM, pH 7.3-7.4, tsat = 3 sec, ω1 = 3.6 μT, 37° C.
# [7] = pH 7.1-7.4, B1=3.6 μT, Tsat=3 s, 37° C., 11.7 T
# Experimental: as §1
# CEST contrast was quantified using MTRasym=[S(−Δω)−S(+Δω))]/S0 for phantom and 1−S(+Δω))/S(−Δω) in vivo to increase the temporal resolution and reduce the motion where S(+Δω) represents water signal intensity with a saturation pulse applied at the frequency+Δω and S0 represents the water signal without a saturation pulse.
# [8] = neutral pH; cited from earlier work
# [9] = 10 mM, pH 7.3-7.4, 37° C.
# Experimental: The samples were kept at 37° C. during imaging. […] TR=15 s, TE=8 ms, matrix size=64×32, slice thickness=3 mm.
# The relaxation parameters for each fit were: R1w=0.26 s^−1, R2w=0.43 s-1, R1s=0.71 s^−1, R2s=39 s^−1. These were determined by fitting the direct water saturation line for PBS and were fixed for subsequent fits of each compound with the exchange rate allowed to vary. All data was processed using Python, Scipy, and Numpy (www.python.org, scipy.org, and numpy.scipy.org, respectively).
# [10] = 48.5 tM iopamidol; cited from earlier work
structure (smiles),measurement,setting,value
"O=C(O)c1ccc(O)cc1O [2,4-Dihydroxy benzoic acid]",LD50,[1],800 mg/kg
Nc1ccc(C(=O)O)c(O)c1 [4-amino salicylic acid],LD50,[1],"4,250 mg/kg"
"O=C(O)c1ccccc1O [Compound 1, salicylic acid]",chemical shift of CEST contrast (exchangeable proton) from water,[2],9.3 ppm
same,proton exchange rate with water (ksw),[3],1.2 ks^−1
same,average CEST contrast over the whole kidney,[4],6.0±0.8% and 6%
same,ksw,[5]; pH 6.5,2.4 kHz
same,ksw,[5]; pH 7.8,0.4 kHz
same,Signal (ppm),[6]; Table 1,9.3 ppm
same,CEST frequency / labile proton chemical shift from water,[7],9.3 ppm
same,exchange rate (previously reported),[8],600 s⁻¹
same,kex,[9]; Table 1,400 s⁻¹
"O=C(O)c1ccccc1Nc1cccc(C(F)(F)F)c1 [Compound 5, flufenamic acid, reference compound]",LD50,[1],150 mg/kg
"Nc1cccc(C(=O)O)c1O [Compound 33, 3-aminosalicylic acid]",Signal (ppm),[6]; Table 4,9.0 ppm
same,kex,[9]; Table 4,410 s⁻¹
"O=Cc1cccc(C(=O)O)c1O [Compound 34, 3-Formylsalicylic acid]",Signal (ppm),[6]; Table 4,10.5 ppm
same,kex,[9]; Table 4,510 s⁻¹
O=C(O)c1ccccc1Nc1ccccc1 [Compound 37],Signal (ppm),[6]; Table 5,4.8 ppm
same,kex,[9]; Table 5,670 s⁻¹
CS(=O)(=O)Nc1ccc(N)cc1C(=O)O [Compound 38],Signal (ppm),[6]; Table 5,6.3 ppm
same,kex,[9]; Table 5,550 s⁻¹
CS(=O)(=O)Nc1ccccc1C(=O)O [Compound 39],Signal (ppm),[6]; Table 5,7.3 ppm
same,kex,[9]; Table 5,470 s⁻¹
Cc1ccc(S(=O)(=O)Nc2ccccc2C(=O)O)cc1 [Compound 40],Signal (ppm),[6]; Table 5,7.8 ppm
same,kex,[9]; Table 5,440 s⁻¹
O=C(O)c1ccccc1NC(=O)C(F)(F)F [Compound 41],Signal (ppm),[6]; Table 5,9.3 ppm
same,kex,[9]; Table 5,190 s⁻¹
O=C(O)c1cc(O)c(C(=O)O)cc1O [Compound 42],Signal (ppm),[6]; Table 6,8.3 ppm
same,kex,[9]; Table 6,990 s⁻¹
"O=C(O)c1cc(C(=O)O)c(O)cc1O [Compound 43, 4,6-dihydroxyisophthalic acid]",Signal (ppm),[6]; Table 6,9.8 ppm
same,kex,[9]; Table 6,460 s⁻¹
"O=C(O)c1cc2ccccc2c(Cc2c(O)c(C(=O)O)cc3ccccc23)c1O [Compound 44, Pamoic acid]",Signal (ppm),[6]; Table 6,9.5 ppm
same,kex,[9]; Table 6,130 s⁻¹
C[C@H](O)C(=O)Nc1c(I)c(C(=O)NC(CO)CO)c(I)c(C(=O)NC(CO)CO)c1I [iopamidol],optimal time to observe the contrast,[10],45 min
